# Columns and labels:
# [1] = tested on: Murine pulmonary adenocarcinoma Madison 109 (M109); assay: Antitumoral activity in murine pulmonary carcinoma model M109; assay type: in vivo, BALB/c mouse; conditions: qdx5x3w; for TVI %: 2 days after final administration
# Procedure: Murine pulmonary adenocarcinoma Madison 109 cells (M109) were maintained by s.c. passage of tumor fragments. The day of inoculation, the cell suspension was injected i.m. in the rear left limb of a 20 g male BALB/c mouse at a density of 3×10^5 cells/mouse. 3LL murine Lewis lung carcinoma was routinely maintained by i.m. passages (every 10-14 days) of 1×10^5 cells/mouse in C57BL/6J mice. For antitumor activity experiments, tumors were excised from donor mice and after mechanical desegregation and enzymatic digestion tumor cell viability was assessed by the trypan blue dye exclusion test. Then, 1×10^5 cells/100 μl/mouse were injected i.m. into the right hind leg muscle of C57BL/6J mice.
# Tumor dimension measurements were performed using a digital calliper (Vernier Caliper) from the day in which the mass became measurable, twice weekly. The tumor mass was assessed from the size of the two principal dimensions (length and breadth), expressed in mm, applying the formula (length×breadth^2)/2 that is, the tumor volume in mm3. For every experimental group the percentage of inhibition of tumor volume (TVI %) was calculated, with respect to that of the control that is (100−(T/C %). TVI was evaluated 2 days after the final administration of ST1926.
# The mean survival time (MST) was also measured and the increase in mean life-span expressed as ILS % (increase of life span) calculated as (MSTT/MSTC)×100−100.
# The comparison between the values of TVI and of survival time, obtained for each group were performed with the non parametric Mann Whitney test for non paired data, using the Instat software from GraphPad inc.
# The ST1926 solution was prepared immediately before use and solubilised in cremophor:ethanol 1:1 and subsequently diluted 1:4 in buffered saline solution. The treatments of the animals were carried out in a volume of 10 ml/kg. The treatment scheme for ST1926 at different doses was for 5 consecutive days (qdx5), beginning 1 day after the inoculation with the tumoral cells and was repeated for 3 cycles.
# The mice (8 for each group) were weighed prior to each treatment, firstly, so as to be able to administer the correct quantity of substance, based on the eventual variations in weight observed throughout the period of drug administration, and also to be able to register the maximum weight loss throughout the treatment (BWL % max).
# [2] = tested on: Human Promyelocytic Leukaemia NB4 Cells; assay: Cyto-fluorometric cell cycle analysis, NB4; assay type: cell-based; conditions: 3 days; for G0/G1 / G2 + M / S: percentage of cell cycle phase
# Procedure: To evaluate the effect of the compound according to the invention, on various phases of the cell cycle, cyto-fluorometric cell cycle analyses were performed.
# HL60 or NB4 cells were seeded onto plates at a density of 150.000 cells/ml in RPMI 1640 medium containing 10% FCS, the test compound (ST 1926) was added, solubilised in 0.1% DMSO at concentrations of between 0.01 and 0.1 μM, in the presence or absence of sub-optimal doses of ATRA (5-10 nM for NB4 and 0.5 μM for HL60) in the dark and placed in an incubator for 3 days without changing the culture medium.
# On the third day of treatment 500.000 cells were sampled, centrifuged at 180×g for 5 minutes, washed twice in calcium and magnesium free PBS. The cells (1×10^6/ml of fixative) were fixed for at least 1 hour in a fixation mixture comprised of acetone/methanol 1:4 v/v maintained at −20° C. and 50% of calcium and magnesium free PBS; then the cells were centrifuged, washed in calcium and magnesium free PBS, and again centrifuged and washed. The cellular precipitate was incubated for 30 minutes in the dark at room temperature with 200 μl of […] (100 μg/ml) and 200 μl of RNAse (150 KU/mg).
# The samples with filtered through nylon filters (60-80 μm diameter) and analysed by cyto-fluorimeter FACScan (Becton Dickinson), acquiring 20000 events/sample, at an excitation wavelength of 488 nm and emission wavelength of 620 nm. The analysis of the percentages of the cell cycle phases was performed using a dedicated software package, Modfit v. 2.0 (Becton Dickinson).
# [3] = tested on: human microvascular endothelial (HMVE) cells; conditions: after 96 h of treatment, cited from earlier work
smiles,measurement,setting,value
"O=C(O)/C=C/c1ccc(-c2ccc(O)c(C34CC5CC(CC(C5)C3)C4)c2)cc1 [ST1926, E-4-(3-(1-adamantyl)-4-hydroxyphenyl)cinnamic acid]",BWL % Max,"[1]; M109, 10 mg/kg i.p.",9%
same,ILS %,"[1]; M109, 10 mg/kg i.p.",27%
same,MST (range days),"[1]; M109, 10 mg/kg i.p.",*28 (25-35) days
same,TVI %,"[1]; M109, 10 mg/kg i.p.",18%
same,BWL % Max,"[1]; M109, 10 mg/kg p.o.",10%
same,ILS %,"[1]; M109, 10 mg/kg p.o.",59%
same,MST (range days),"[1]; M109, 10 mg/kg p.o.",**35 (27-42) days
same,TVI %,"[1]; M109, 10 mg/kg p.o.",*49%
same,BWL % Max,"[1]; M109, 15 mg/kg i.p.",10%
same,ILS %,"[1]; M109, 15 mg/kg i.p.",64%
same,MST (range days),"[1]; M109, 15 mg/kg i.p.",**36 (30-42) days
same,TVI %,"[1]; M109, 15 mg/kg i.p.",*46%
same,APOPTOSIS,"[2]; NB4, 0.01 μM",19.9
same,G0/G1,"[2]; NB4, 0.01 μM",48.4
same,G2 + M,"[2]; NB4, 0.01 μM",12.8
same,S,"[2]; NB4, 0.01 μM",38.8
same,APOPTOSIS,"[2]; NB4, 0.02 μM",28.4
same,G0/G1,"[2]; NB4, 0.02 μM",48.2
same,G2 + M,"[2]; NB4, 0.02 μM",12.4
same,S,"[2]; NB4, 0.02 μM",39.4
same,APOPTOSIS,"[2]; NB4, 0.04 μM",33.9
same,G0/G1,"[2]; NB4, 0.04 μM",51.3
same,G2 + M,"[2]; NB4, 0.04 μM",13.0
same,S,"[2]; NB4, 0.04 μM",35.7
same,APOPTOSIS,"[2]; NB4, 0.08 μM",45.0
same,G0/G1,"[2]; NB4, 0.08 μM",41.4
same,G2 + M,"[2]; NB4, 0.08 μM",5.0
same,S,"[2]; NB4, 0.08 μM",53.6
same,APOPTOSIS,"[2]; NB4, 0.1 μM",53.6
same,G0/G1,"[2]; NB4, 0.1 μM",50.6
same,G2 + M,"[2]; NB4, 0.1 μM",3.3
same,S,"[2]; NB4, 0.1 μM",46.1
same,effect on the cell cycle of NB4 (in words),"[2]; NB4, 0.08 and 0.1 μM",induces growth arrest in the duplication S phase of the cycle and apoptosis
same,inhibition (%) at 0.5 μM,"[3]; 0.5 μM, relative to vehicle alone control",90%
same,IC50,"[3]; highest concentration evaluated 0.5 μM, read-out: IC50 (concentration inhibiting proliferation by 50%)",0.1 µM

# Reference: US7449495B2, “Retinoid derivatives with antiangiogenic, antitumoral and proapoptotic activities” (Sigma-Tau Industrie Farmaceutiche Riunite S.p.A., priority 2001, dated 2008)
